# Assay results from patent publication US7183269B2, “Synergistic compositions for the selective control of tumor tissue” (priority 1997, dated 2007).
# Experiments:
# RT112 = test: Cell Death Detection ELISA (apoptosis kit) with RT112 as a function of pH; assay type: cell-based, human
# Protocol: The measurements were carried out using a “Cell Death Detection ELISA” kit, Cat. No. 1774 425 commercially available from Boehringer (Mannheim). The process instructions are additionally supplied by Boehringer.
# The OD value corresponds to the cell death.
# The results of the experiments are summarized in FIGS. 1 to 3, which correspond to Tables 1 to 3. In the figures, the cell death is recorded in a ELISA (apoptosis kit) with RT112 as a function of the pH. That is to say the data on the Y axis of the figures is a measure of the cell death; the pH of the cells is indicated on the X axis. FIG. 1 and FIG. 2 show experiments in which individual compounds were employed. […] It stands out that at a pH of between 6.5 and 7.0 the compositions according to the invention cause a cell death which is preferably in the vicinity of or above the CAM value, which virtually corresponds to a complete destruction of the tumor tissue.
# The apoptosis-inducing substance CAM used in the experiments is camptothecin (CAM value). In the experiments, positive control means that instead of the apoptotic cancer cells induced by the substances a histone-DNA complex with known detection sensitivity is employed for detection, i.e. an artificial apoptosis product is provided. In the experiments, negative control means that the same detection procedure is carried out, but without addition of substances or substance mixtures.
# (§1) The human bladder tumor cell line. RT112 or the human chronic myeloid leukemia cell line K562 were purchased from DKFZ Tumorzell—und datenbank (Institut für experimentelle Pathologie, Heidelberg, FRG) or DSM (Deutsche Sammlung von Mikroorganismen und Zellkulturen GmbH, Braunschweig, FRG), respectively. The cells were cultured in HEPES-buffered RPMI 1640 (SIGMA, Deisenhofen, FRG) supplemented with 2 mM L-glutamine (BIOCHROM, Berlin, FRG), 1% NEAE (BIOCHROM), 10% heat-inactivated fetal calf serum (BIOCHROM), 100 U/ml penicillin and 50 μg/ml streptomycin (BIOCHROM) at 37° C. and 5% CO2. Only mycoplasma-free cell cultures were used; this was frequently tested using a specific detection kit (BOEHRINGER MANNHEIM, Mannheim, FRG).
# [1] = test system: RT112 tumor cells (bladder carcinoma); test: [3H]-TdR incorporation assay (proliferation); assay type: cell-based, human; details: in dependence of extracellular pH, FIG. 4
# Text: The anticancer activity of salicylate combinations can also be examined by in vitro experiments with tumor cell lines. As a relevant criterion of toxic effects on cancer cells the proliferation rate can be considered. The proliferation rate effected by salicylate combinatioins can be measured in dependence of the extracellular pH-milieu. (Details for cell cultures, see Materials & Methods below.)
# The effect of salicylate combinations on the proliferation of RT112 tumor cells is quantitated by the measurement of incorporated tritiated thymidine ([^3H]-TdR) into the cellular DNA of the cancer cells by liquid scintillation counting (LSC). (Method details, see Material & Methods below.)
# as §1
# The influence of cytotoxic molecules on the proliferation of RT112 tumor cells was quantitated by the measurement of the incorporated tritiated thymidine ([^3H]-TdR) into the cellular DNA of the tumor cells by liquid scintillation counting (LSC). In brief, RT112 cells were harvested, washed twice and resuspended in culture media (2.5×10^5/ml). 100 μl/well of the RT112 cell suspension were seeded into 96 well microtiter plates (BECTON DICKINSON) and incubated over night at 37° C. and 5% CO2. The supernatant was replaced by 90 μl pH-adjusted culture medium (pH 6.0–7.4) and 10 μl of the solution of preferred substances or 100 μl/well pH-adjusted culture medium alone (control). The cells were incubated for various time periods at 37° C. and 5% CO2. Thereafter, cells were washed twice, reincubated in fresh pH-adjusted culture medium and pulsed for 24 h by the addition of 23.125 kBq [^3H]TdR/well (925 kBq/ml; AMERSHAM, Braunschweig, FRG). After freezing and thawing, radioactive DNA of the cultures were transferred to glass fiber filters with an automatic cell harvester (PHARMACIA). The incorporated radioactivity was measured in a liquid scintillation counter (PHARMACIA).
# [2] = Table 2, measurement after 35 minutes, 15 mM, initial pH 6.0
# [3] = Table 2, measurement after 35 minutes, 15 mM, initial pH 6.5
# [4] = Table 2, measurement after 35 minutes, 15 mM, initial pH 7.0
# [5] = Table 2, measurement after 35 minutes, 15 mM, initial pH 7.4
# [6] = Table 2, measurement after 35 minutes, 10 mM, initial pH 6.0
# [7] = Table 2, measurement after 35 minutes, 10 mM, initial pH 6.5
# [8] = Table 2, measurement after 35 minutes, 10 mM, initial pH 7.0
# [9] = Table 2, measurement after 35 minutes, 10 mM, initial pH 7.4
smiles,measurement,setting,value
"CC[C@@]1(O)C(=O)OCc2c1cc1n(c2=O)Cc2cc3ccccc3nc2-1 [CAM, camptothecin]",OD (405–490 nm),"RT112; Table 1, measurement after 35 minutes, 800 ng/ml, initial pH 6.0",0.818
same,OD (405–490 nm),"RT112; Table 1, measurement after 35 minutes, 800 ng/ml, initial pH 6.5",3.037
same,OD (405–490 nm),"RT112; Table 1, measurement after 35 minutes, 800 ng/ml, initial pH 7.0",2.725
same,OD (405–490 nm),"RT112; Table 1, measurement after 35 minutes, 800 ng/ml, initial pH 7.4",2.416
same,OD (405–490 nm),"RT112; Table 2, measurement after 35 minutes, 160 ng/ml, initial pH 6.0",0.344
same,OD (405–490 nm),"RT112; Table 2, measurement after 35 minutes, 160 ng/ml, initial pH 6.5",0.711
same,OD (405–490 nm),"RT112; Table 2, measurement after 35 minutes, 160 ng/ml, initial pH 7.0",1.220
same,OD (405–490 nm),"RT112; Table 2, measurement after 35 minutes, 160 ng/ml, initial pH 7.4",1.923
same,OD (405–490 nm),"RT112; Table 3, measurement after 20 minutes, 800 ng/ml, initial pH 6.0",1.681
same,OD (405–490 nm),"RT112; Table 3, measurement after 20 minutes, 800 ng/ml, initial pH 6.5",1.708
same,OD (405–490 nm),"RT112; Table 3, measurement after 20 minutes, 800 ng/ml, initial pH 7.0",1.791
same,OD (405–490 nm),"RT112; Table 3, measurement after 20 minutes, 800 ng/ml, initial pH 7.4",2.217
"COc1ccc(C(=O)O)c(OC)c1 [Substance 188, 2,4-dimethoxybenzoic acid]",OD (405–490 nm),RT112; [2],0.256
same,OD (405–490 nm),RT112; [3],0.309
same,OD (405–490 nm),RT112; [4],0.502
same,OD (405–490 nm),RT112; [5],1.854
"Nc1ccc(C(=O)O)c(O)c1 [Substance 58a, 2-hydroxy-4-aminobenzoic acid]",OD (405–490 nm),RT112; [2],0.320
same,OD (405–490 nm),RT112; [3],0.282
same,OD (405–490 nm),RT112; [4],0.574
same,OD (405–490 nm),RT112; [5],1.835
same,effect on the proliferation rate,[1],no effect or minor effect
"O=C(O)c1c(O)cccc1O [Substance 136, 2,6-dihydroxybenzoic acid]",OD (405–490 nm),"RT112; Table 1, measurement after 35 minutes, 5 mM, initial pH 6.0",0.187
same,OD (405–490 nm),"RT112; Table 1, measurement after 35 minutes, 5 mM, initial pH 6.5",0.918
same,OD (405–490 nm),"RT112; Table 1, measurement after 35 minutes, 5 mM, initial pH 7.0",0.321
same,OD (405–490 nm),"RT112; Table 1, measurement after 35 minutes, 5 mM, initial pH 7.4",0.382
same,OD (405–490 nm),"RT112; Table 1, measurement after 35 minutes, 7 mM, initial pH 6.0",0.221
same,OD (405–490 nm),"RT112; Table 1, measurement after 35 minutes, 7 mM, initial pH 6.5",1.287
same,OD (405–490 nm),"RT112; Table 1, measurement after 35 minutes, 7 mM, initial pH 7.0",0.524
same,OD (405–490 nm),"RT112; Table 1, measurement after 35 minutes, 7 mM, initial pH 7.4",0.816
same,effect on the proliferation rate,[1],no effect or minor effect
"CC(=O)Oc1ccc(C(=O)O)c(OC(C)=O)c1 [Substance 132, 2,4-diacetoxybenzoic acid]",OD (405–490 nm),RT112; [6],2.856
same,OD (405–490 nm),RT112; [7],0.183
same,OD (405–490 nm),RT112; [8],0.088
same,OD (405–490 nm),RT112; [9],0.502
same,OD (405–490 nm),"RT112; Table 3, measurement after 20 minutes, 5 mM, initial pH 6.0",0.407
same,OD (405–490 nm),"RT112; Table 3, measurement after 20 minutes, 5 mM, initial pH 6.5",0.371
same,OD (405–490 nm),"RT112; Table 3, measurement after 20 minutes, 5 mM, initial pH 7.0",0.422
same,OD (405–490 nm),"RT112; Table 3, measurement after 20 minutes, 5 mM, initial pH 7.4",0.916
"O=C(O)c1cc(-c2ccc(F)cc2F)ccc1O [Diflu, 5-(2,4-difluoro-phenyl)salicylic acid]",effect on the proliferation rate,[1],no effect or minor effect
"O=C(O)c1c(O)cc(O)cc1O [DHSA, 2,4,6-trihydroxybenzoic acid]",effect on the proliferation rate,[1],no effect or minor effect
"CC(=O)Oc1ccccc1C(=O)O [Substance 121, acetylsalicylic acid (2-acetoxybenzoic acid)]",OD (405–490 nm),RT112; [6],1.282
same,OD (405–490 nm),RT112; [7],0.163
same,OD (405–490 nm),RT112; [8],0.413
same,OD (405–490 nm),RT112; [9],1.508
same,effect on the proliferation rate,[1],no effect or minor effect
